The values below are quoted from earlier work in patent US11266683B2, “Antimicrobial and cleansing composition consisting of a polymeric biguanide and EDTA” (priority 2016, dated 2022).

Like-named read-outs stand apart in the source and are kept apart here.

The subject of data set [1] is S. aureus.
Data set [2] deals with fibroblasts.

In the case of polyhexamethylene biguanide [PHMB], the “risk of the bacterium developing resistance” value in data set [1] was “very low”.
Regarding `[H]/N=C(\N/C(=N/[H])NCCCCCCNC(=N)NC(=N)Nc1ccc(Cl)cc1)Nc1ccc(Cl)cc1` [chlorhexidine], the effect on fibroblasts entry was “causes necrosis” in data set [2] (at higher concentration) and “induces apoptosis” in data set [2] (at lower concentration).
